Experimental data: patent publication US20250114389A1, “NUCLEOSIDES AND NUCLEOTIDES ANALOGS AS ANTIVIRAL AGENTS” (Emory University, priority 2021, published 2025)
Where two headings read alike, the source gives them in different places.

Experiments:
Assay type in all cases: cell-based
[1] = tested on: SARS-CoV2 variant Beta; experiment: microbe, parasite or virus in culture
[2] = tested on: SARS-CoV2 Lineage A (Wa); experiment: Antiviral activity against SARS-CoV2 Lineage A (Wa) in Calu3
[3] = tested on: SARS-CoV2 Lineage A (Eng); experiment: Antiviral activity against SARS-CoV2 Lineage A (Eng) in Calu3
[4] = tested on: SARS-CoV2 variant Alpha; experiment: microbe, parasite or virus in culture
[5] = tested on: SARS-CoV2 variant Beta; experiment: microbe, parasite or virus in culture; remark: listed apart in the source
[6] = tested on: SARS-CoV2 variant Gamma; experiment: microbe, parasite or virus in culture
[7] = tested on: SARS-CoV2 variant Delta; experiment: microbe, parasite or virus in culture
[8] = tested on: SARS-CoV2 variant Delta; experiment: microbe, parasite or virus in culture; remark: listed apart in the source
[9] = tested on: SARS-CoV2 Lineage A (Wa); experiment: Antiviral activity against SARS-CoV2 Lineage A (Wa) in Vero
[10] = tested on: SARS-CoV2 variant Gamma; experiment: microbe, parasite or virus in culture; remark: listed apart in the source
[11] = tested on: SARS-CoV2 variant Alpha; experiment: microbe, parasite or virus in culture; remark: listed apart in the source
[12] = Severe acute respiratory syndrome coronavirus 2, Calu-3, Calu3, read-out: Antiviral Activity Against SARS-CoV2 Variants in Calu3, first value column
[13] = Severe acute respiratory syndrome coronavirus 2, Calu-3, read-out: Antiviral Activity Against SARS-CoV2 Variants in Calu3, first value column
[14] = Severe acute respiratory syndrome coronavirus 2, Vero, read-out: Antiviral Activity Against SARS-CoV2 Variants in Vero, first value column

Structure (SMILES)	Antiviral Activity Against SARS-CoV2 Variants in Calu3, second value column [1] [µM]	Antiviral Activity Against SARS-CoV2 Variants in Calu3, second value column [2] [µM]	Antiviral Activity Against SARS-CoV2 Variants in Calu3, second value column [3] [µM]	Antiviral Activity Against SARS-CoV2 Variants in Vero [4] [µM]	Antiviral Activity Against SARS-CoV2 Variants in Vero [5] [µM]	Antiviral Activity Against SARS-CoV2 Variants in Calu3, second value column [7] [µM]	Antiviral Activity Against SARS-CoV2 Variants in Vero [8] [µM]	Antiviral Activity Against SARS-CoV2 Variants in Vero [9] [µM]	Antiviral Activity Against SARS-CoV2 Variants in Vero [10] [µM]	Antiviral Activity Against SARS-CoV2 Variants in Calu3, second value column [11] [µM]	further results
N#C[C@@]1(n2ccc(N)nc2=O)O[C@H](CO)[C@@H](O)[C@H]1O [Compound A, (2R,3R,4S,5R)-2-(4-amino-2-oxopyrimidin-1(2H)-yl)-3,4-dihydroxy-5-(hydroxymethyl)-tetrahydrofuran-2-carbonitrile]	1.2	4.5	3.6	1.2	1.4	0.1	0.3	0.4	1.0	0.4	EC50 [1, 12]: 300 nM; EC50 [2, 13]: 1700 nM; EC50 [3, 13]: 1800 nM; EC50 [4, 14]: 800 nM; EC50 [5, 14]: 300 nM; Antiviral Activity Against SARS-CoV2 Variants in Calu3, second value column [6]: 1.2 µM; EC50 [6, 12]: 1100 nM; EC50 [7, 12]: 40 nM; EC50 [8, 14]: 200 nM; EC50 ([9]; Severe acute respiratory syndrome coronavirus 2, read-out: Antiviral Activity Against SARS-CoV2 Variants in Vero, first value column): 200 nM; EC50 [10, 14]: 800 nM; EC50 [11, 12]: 100 nM
CCC(CC)COC(=O)[C@H](C)N[P@](=O)(OC[C@H]1O[C@@](C#N)(c2ccc3c(N)ncnn23)[C@H](O)[C@@H]1O)Oc1ccccc1 [Remdesivir, reference compound]	0.4	0.3	2.3	0.6	1.6	0.3	2.1	2.9	2.2	0.4	–
